From patent publication US20260207514A1, “Clofazimine Mini-Tablets for Treatment of Tuberculosis in Pediatrics” (Via Therapeutics, LLC, priority 2022, published 2026)
Values after ≈ are worked out from the molar mass of the structure shown. Read-outs that look alike come from different tables or passages of the source.

Legend:
[1] = Stress testing of micronized CFZ with excipient blends (compatibility, HPLC assay and related substances); format: physicochemical
Procedure: Clofazimine degradation was assessed using the high pressure liquid chromatography (HPLC) method published in the United States Pharmacopeia monograph for the drug (U.S.P., 2021) The mobile phase consisted of a 65:35 mixture of acetonitrile and an aqueous buffer consisting of 4.5 g/L sodium dodecyl sulfate, 1.7 g/L tetrabutylammonium hydrogen sulfate and 21.8 g/L Na2HPO4 adjusted to pH 3.0. Flow rate was 1.0 mL/min and infection volume was 20 μL. A LiChromspher® RP-8 100 column (250×4.6, 5 μm) (Millipore Sigma) was used. Measurements were performed using an Agilent 1100 HPLC with diode array detector set at 280 nm. […] Hydrophobic PTFE 0.22 μm filters were used for sample filtration prior to analysis.
Stress testing of micronized CFZ in combination with commercially available tableting excipient blends was performed to establish potential mechanisms of drug degradation and streamline excipient selection for mini-tablet preparation. Two different blends were assessed: Prosolv® EasyTab SP (JRS Pharma) and Ludipress® (BASF).
Additionally, Eudragit® E PO was assessed, as a potential candidate for functional coating of the mini-tablets to prevent CFZ release in the saliva and subsequent staining of the mouth. Binary mixtures of micronized CFZ and excipient blends and micronized CFZ and Eudragit E PO were prepared at 1:1 weight ratios. Blends of CFZ with Prosolv EasyTab SP, Ludipress, or Eudragit E PO were left open or in closed HPDE vials and stored for 18 days at 70° C./20% relative humidity (RH) or 70° C./75% RH, which was the thermal equivalent of 6 months of storage. As a control, micronized CFZ alone and each excipient blend alone were stored open at each condition.
HPLC analysis was performed on day 0 for CFZ alone and CFZ with each excipient, as well as on day 18 for the same samples at each temperature and humidity condition. Assay values (% recovery) for all samples was determined by comparing peak area to a reference standard and correcting for sample water content measured by Karl Fischer titration method, and related substances were reported by relative retention time (RRT) to the reference CFZ peak.

physchem = format: physicochemical; conditions: thermodynamic from solid, read-out: CFZ saturation solubility
[2] = 1 mg/kg per day, average 105.6 days, average age 5.8 years; cited from earlier work
[3] = Particle size distribution of milled powder by laser diffraction; format: physicochemical; conditions: jet-milled powder, RODOS 4 bar
Procedure: Clofazimine (CFZ) (Midas Pharma GmbH) was micronized by Lonza Group AG using a 10-inch spiral jet mill at 3 kg/hr feed rate and 100 psi grinding pressure. Particle size distribution of the milled powder was determined using a laser diffractor (HELOS, Sympatec GmbH) with RODOS dry powder disperser set at 4 bar dispersion pressure and 20% rotation.

For `CC(C)/N=c1\cc2n(-c3ccc(Cl)cc3)c3ccccc3nc-2cc1Nc1ccc(Cl)cc1` [CFZ, clofazimine], the “Impurity (% Area) RRT 0.82” value ([1]; 70 C./20% RH, Open, 18 days) was 0.113 % Area, the “Impurity (% Area) RRT 0.88” value ([1]; 70 C./20% RH, Open, 18 days) was 0.117 % Area and the “Impurity (% Area) RRT 0.82” value ([1]; 70 C./75% RH, Open, 18 days) was 0.096 % Area. For the same compound, the “Impurity (% Area) RRT 0.88” value ([1]; 70 C./75% RH, Open, 18 days) was 0.126 % Area, the “Impurity (% Area) RRT 0.94” value ([1]; 70 C./75% RH, Open, 18 days) was less than 0.05 % Area and the “Impurity (% Area) RRT 0.82” value ([1]; Initial (day 0)) was 0.096 % Area. For the same compound, the “Impurity (% Area) RRT 0.88” value ([1]; Initial (day 0)) was 0.109 % Area, the solubility (physchem; fassgf or other biorelevant, in FaSSGF) was 0.092 ± 0.004 µg/mL (≈ 0.194 µM) and the solubility (physchem; fassgf or other biorelevant, in FeSSGF) was 20.1 ± 1.86 µg/mL (≈ 42.5 µM). The solubility (physchem; fessif, in FeSSIF) was 14.9 ± 1.5 µg/mL (≈ 31.5 µM), the adverse effects [2] was “limited to skin discoloration and gastrointestinal symptoms” and the X10 diameter [3] was 0.66 μm. For the same compound, the X50 diameter [3] was 1.47 μm and the X90 diameter [3] was 3.50 μm.
